In patent publication US20220281930A1, “COMPOSITIONS AND METHODS FOR THE TREATMENT OF PATHOLOGICAL PAIN AND ITCH” (DUKE UNIVERSITY, priority 2019, published 2022):

Tests used:
KCC2 promoter = assay: KCC2-LUC luciferase primary screen in primary cortical neurons; type: cell-based, mouse; conditions: rank score, 100 nM, 48 h
Procedure: Cytosine arabinoside ([…]) was added to cultures on the second day after seeding [2 d in vitro (DIV)] to inhibit the proliferation of non-neuronal cells. Cell suspension was plated at a density of 1×10^6 cells/ml onto 24-well tissue-culture dishes coated with poly-d-lysine.
LUC activity was then determined for each compound. Culture supernatant was removed and cells were lysed with 150 μl lysis buffer (Targeting Systems CA, USA cat. CLR1). LUC activity was measured with a RedLuciferase Assay kit (Targeting Systems cat. FLAR) according to the manufacturer's instructions. A Veritas microplate luminometer was used to measure luminescence; for each treatment triplicates of 40 μl cell lysates (from each 24-well tissue-culture dish) were used and 25 μl substrate was injected per well. […] Relative Light units (RLU) for each treatment was derived from Light Units (compound treatment)/vehicle treatment (0.5% DMSO).
The primary screen encompassed three levels of LUC measurements. […] Each compound was ranked based on composite scores from primary and secondary screening.

KCC2 = assay: Composite score from primary and secondary screening; type: cell-based, mouse; conditions: for Aggregate Score / Top two hits: Mechanistic Compounds; for Aggregate Score / Total Score: sum of the three scores
Procedure: (§1) The primary screen encompassed three levels of LUC measurements. The first level of screening yielded a total of 137 compounds with cut-off RLU>125% LUC activity. These 137 compounds were subject to second round of screening, which was carried out in duplicate independent assays to yield the top 103 compounds sorted for highest RLU. The 103 compounds were then subjected to a third round of screening carried out in duplicate independent assays to yield the top 40 compounds which were again ranked. The best 22 of these 40 compounds (ranked for highest RLU activity) were subjected to secondary screening: Cultured neurons were treated with the 22 compounds; RT-qPCR and Clomeleon imaging methodologies (Yeo et al., 2009, J Neurosci 29:14652-14662) were used to determine effects of compounds on KCC2 mRNA expression and [Cl—]i, respectively. Each compound was ranked based on composite scores from primary and secondary screening.
(§2) To identify KCC2 gene expression enhancing compounds, cultured primary cortical neurons were cultured from KCC2-luciferase(LUC)-knockin (KCC2-LUCki) mice (Liedtke et al., 2013, Small 9:1066-1075; Yeo et al., 2013, Proc Natl Acad Sci USA 110:4315-4320) and used LUC metrics as readout for activity of the proximal KCC2 promoter (2.5 kB (Yeo et al., 2009, J Neurosci 29:14652-14662)), which drives LUC in this mouse transgenic line. A Z′ factor of 0.94 was obtained. This strategy will not select for long-range enhancers of KCC2 gene expression that act outside the 2.5 kB core KCC2 promoter. 1057 compounds, contained in two NCI libraries (FIG. 1), related to inhibition of growth of malignantly transformed cells were screened. Iterative screening followed by measurements of KCC2 mRNA (RT-qPCR) and intracellular chloride ([Cl—]i), using clomeleon chloride indicator protein (Kuner and Augustine, 2000, Neuron 27:447-459; Yeo et al., 2009, J Neurosci 29:14652-14662), led to decreasing numbers of confirmed and re-confirmed hits, and 4 “winner” compounds were selected (FIG. 1 and Table 3).

KCC2 mRNA [1] = assay: Secondary screen: KCC2 RT-qPCR in primary mouse neurons; type: cell-based; conditions: rank score
Procedure: as §1
(§3) Total RNA was isolated from cultured cell samples using Directzol RNA miniprep kit (ZymoResearch). The protocol includes DNAse digestion to exclude genomic DNA from preparations. Total RNA (1 μg) was reverse transcribed using oligo primers (dT) and SuperScriptIII first-strand synthesis kit (Invitrogen). Gene expression was assessed by quantitative real-time PCR using 2×SYBR Green Master Mix (Qiagen) and a three-step cycling protocol (anneal at 60° C./elongate at 72° C., denature at 95° C.). Specificity of primers was verified by dissociation/melting curve for the amplicons when using SYBR Green as a detector. All reactions were performed in triplicates. The amount of target messenger RNA (mRNA) in the experimental group relative to that in the control was determined from the resulting fluorescence and threshold values (Ct) using the ΔΔCt method. βIII-tubulin was used as housekeeping gene.
oligodT-initiated reverse transcription of 1 μg total RNA, DNA-se treated, was subjected to RT-qPCR using primers specific for KCC2 for rat and KCC2 for human sequences, normalized for neuronal βIII-tubulin, as previously described (Yeo et al., 2009, J Neurosci 29:14652-14662). For cultured neurons, total RNA was extracted from pelleted cells, and for spinal cord tissue it was extracted from microdissected lumbar spinal cord dorsal horn.
as §2

[2] = tested on: intracellular chloride ([Cl—]i); assay: Secondary screen: Clomeleon chloride imaging in primary mouse neurons; type: cell-based; set-up: chloride reduction (%): concentration or dose not given beside the values; conditions: for Clomeleon Score (duplicates): rank score; for chloride reduction (%): from the [Cl—]i pair of the same line; for chloride [Cl—]i mM: value after compound, control => treated
Procedure: as §1
(§4) Chloride imaging of primary cultured cortical neurons was conducted as previously described (Kuner and Augustine, 2000, Neuron 27:447-459; Liedtke et al., 2013, Small 9:1066-1075; Yeo et al., 2009, J Neurosci 29:14652-14662). A Clomeleon expression plasmid was transfected into primary cortical neurons by electroporation (Amaxa Nucleofector Device). Transfected neurons were verified by yellow fluorescent protein (YFP) fluorescence, and ratiometric images (excitation at λ=434 nm, dual emission at λ=485 and 535 nm; for resting chloride, six stable frames at […] were captured, which were averaged) were acquired using RATIOTOOL program. Calibration of Clomeleon signals (535 nm/485 nm emission ratio) was performed by using tributyltin-nigericin to establish a standard curve, which was then normalized for measured intraneuronal pH to take into account the pH sensitivity of Clomeleon.
as §2

KCC2 mRNA [3] = assay: KCC2 mRNA RT-qPCR in rat primary cortical neurons; type: cell-based; conditions: rat primary cortical neurons; dose-dependent, FIG. 10
Procedure: as §3, with “gene. oligodT-initiated reverse transcription of 1 μg total RNA, DNA-se treated, was subjected to RT-qPCR using primers specific for KCC2 for rat and KCC2 for human sequences, normalized for neuronal βIII-tubulin, as previously described (Yeo et al., 2009, J Neurosci 29:14652-14662). For cultured neurons, total RNA was extracted from pelleted cells, and for spinal cord tissue it was extracted from microdissected lumbar spinal cord dorsal horn.” for “gene.”

neuronal [Cl—]i = assay: Clomeleon chloride imaging in rat primary cortical neurons; type: cell-based; conditions: VU0240551 2.5 μM add-on; both vehicle-treated and KP-treated
Procedure: as §4

nerve injury pain = assay: Nerve constriction injury (PSNL) pain model, mechanical withdrawal; type: in vivo, mouse; conditions: day 7; 3 h, 4 h, 5 h after i.t injection
Procedure: For pain-related behavior, mechanical allodynia was assessed with von Frey filaments (Ugo Basile, Italy). The mice were placed on a 5×5-mm wire-mesh grid floor in individual compartments to avoid visual stimulation and allowed to adapt for 0.5 h prior to the von Frey test. The von Frey filament was then applied to the middle of the plantar surface of the hind paw with 5 g force. The withdrawal responses following the hind paw stimulation were measured at least three times, and the mechanical allodynia, which was defined as an increase in the number of withdrawal responses to the stimulation, was compared.
Thus, in vivo, KP functions as an analgesic when administered systemically in injury-related pain models.
Next, whether the analgesic effects of KP were mediated centrally at the spinal cord level was assessed.
Mechanical withdrawal was measured thresholds after nerve constriction injury (PSNL) (FIG. 12B and FIG. 12C). […] Thus, δ-cat(S276A) spinal transgenesis via AAV9 is sufficient to evoke analgesia after nerve constriction injury, to lesser degree also with δ-cat(WT). Importantly, δ-cat(S276A) spinal transgenesis was accompanied by increased expression of KCC2 in the SCDH. […] Moreover, our discovery points toward a genetically-encoded approach that can be developed for translation into clinical use as an alternative or complement to KP-related small molecules.

Row | Structure (SMILES) | Luciferase Score (triplicates) (KCC2 promoter; Mechanistic Compounds) | Aggregate Score (KCC2) | RT-QPCR Score (triplicates) (KCC2 mRNA [1]; Mechanistic Compounds) | Clomeleon Score (duplicates) ([2]; Mechanistic Compounds) | chloride reduction (%) [2] | chloride [Cl—]i mM [2] | KCC2 mRNA expression (KCC2 mRNA [3]) | Top two hits (KCC2) | Luciferase Score (triplicates) (KCC2 promoter; Natural Compounds) | Top 2 hits (KCC2; Natural Compounds) | Total Score (KCC2; Natural Compounds) | RT-QPCR Score (triplicates) (KCC2 mRNA [1]; Natural Compounds) | Clomeleon Score (duplicates) ([2]; Natural Compounds) | [Cl—]i with add-on KCC2-transport blocker (neuronal [Cl—]i) | effect of i.t co-application with KP on KP analgesia (nerve injury pain)
1 | Cc1cc(-c2nc3ccccc3s2)ccc1N [4-(1,3-Benzothiazol-2-yl)-2-methylaniline] | 4 | 13 | 5 | 4 | 46.3% | 82 => 38 mM |  |  |  |  |  |  |  |  | 
2 | CC(O)CCC(=O)c1ccoc1 (stereo not drawn) [4-Ipomeanol] | 3 | 8 | 2 | 3 | 43.2% | 74 => 32 mM |  |  |  |  |  |  |  |  | 
3 | N=C1N=CN=C2C([C@@H]3O[C@H](CO)[C@@H](O)[C@H]3O)=CN=C12 [9-Deazaadenosine] | 2 | 11 | 4 | 5 | 48.8% | 82 => 40 mM |  |  |  |  |  |  |  |  | 
4 | O=C1[C@H](Cc2ccc(O)cc2)N2C(=O)CCN(C(=O)NCc3ccccc3)[C@H]2CN1Cc1cccc2ccccc12 [ICG-001] |  |  |  |  |  |  | significantly decreases |  |  |  |  |  |  |  | 
5 | CC(=O)Nc1ccc(-c2nc3ccccc3s2)cc1 [NSC33006, N-[4-(1,3-benzothiazol-2-yl)phenyl]acetamide] | 2 | 5 | 1 | 2 | 37.8% | 74 => 28 mM |  | winner |  |  |  |  |  |  | 
6 | Cc1ccc(NC(=O)c2cccc([N+](=O)[O-])c2O)c(C)c1 [NSC79456, n-(2,4-Dimethylphenyl)-2-hydroxy-3-nitrobenzamide] | 1 | 5 | 3 | 1 | 32.4% | 74 => 24 mM |  | winner |  |  |  |  |  |  | 
7 | CC(=O)C1CCCC(=O)C=CC(=O)O1 (stereo not drawn) [NSC180515, 2-Acetyl-2,3,4,5-tetrahydrooxonine-6,9-dione] |  |  |  |  | 32% | 68 => 22 mM |  |  | 4 | winner | 6 | 1 | 1 |  | 
8 | Cc1csc(NC(=O)CSc2ccc(-c3ccccc3)nn2)n1 [VU0240551] |  |  |  |  |  |  |  |  |  |  |  |  |  | ≥ 120 mM | eliminates the central analgesic effects of KP
9 | COc1ccc(C[C@H]2NC[C@H](O)[C@H]2OC(C)=O)cc1 [anisomycine] |  |  |  |  | 57.3% | 75 => 43 mM |  |  | 3 |  | 13 | 4 | 6 |  | 
10 | C[C@@]12C(=O)OC(=O)[C@]1(C)[C@H]1CC[C@@H]2O1 [cantharidine] |  |  |  |  | 48.5% | 68 => 33 mM |  |  | 6 |  | 15 | 6 | 3 |  | 
11 | CC1(C)CCC[C@]2(C)C3=C(CC[C@@H]12)C(=O)OC3 [confertifoline] |  |  |  |  | 56% | 75 => 42 mM |  |  | 1 |  | 11 | 5 | 5 |  | 
12 | COc1cc2c3c(c4ccc(OC)c(OC)c4c2cc1OC)CN1CCC[C@H]1C3 [tylocrebrine] |  |  |  |  | 52% | 75 => 39 mM |  |  | 5 |  | 12 | 3 | 4 |  | 
